Test results as given in publication PMC7462985, “Inhibitors of BRAF dimers using an allosteric site” (Nature Communications, 2020).
One block for each molecule: values may come before it.

Key:
BRAF^WT = target: T1, BRAF^WT (Homo sapiens, UniProt P15056); assay: SelectScreen Z'-LYTE kinase activity assay; assay type: biochemical; settings: 100 μM ATP
T1 construct: purchased Invitrogen (SelectScreen service)
Protocol: (§2) BRAF kinase assays were performed using the Z’-LYTE™ enzymatic assay (Invitrogen, USA). […] Titrations were performed using a 1:3 dilution. Assays were performed using SelectScreen (Invitrogen).

ABL1 = target: T2, ABL1 (Homo sapiens, UniProt P00519); assay: SelectScreen kinase activity assay; assay type: biochemical; settings: 100 μM ATP
T2 construct: purchased Invitrogen (SelectScreen service)
Protocol: as §2

PDFGRα = target: T3, PDFGRα (Homo sapiens, UniProt P16234); assay: SelectScreen kinase activity assay; assay type: biochemical; settings: 100 μM ATP
T3 construct: purchased Invitrogen (SelectScreen service)
Protocol: as §2

[1] = test system: HEK293H cells expressing p61BRAF^V600E/R509H; assay: p-ERK inhibition in transfected HEK293H cells; assay type: cell-based; settings: HEK293-H, 1 μM lapatinib pre-treatment 1 h, PHI1 1 h, read-out: IC50 of pERK inhibition
Protocol: (§1) HEK239H cells were seeded in 6-well plates (1 × 10^6 cells per well) and transfected the following day using Lipofectamine 3000 (Invitrogen L3000008) according to the manufacturer’s instructions. 2 μg of p61BRAF^V600E plasmid (pcDNA-3 vector) DNA per well was employed. […] ERK signaling and BRAF^V600E expression was assessed by western blot. […] In addition, HEK239H cells seeded in 6-well plates (1 × 10^6 cells per well) were transfected with Lipofectamine 3000 containing 2 μg of p61BRAF^V600E plasmid or 2 μg of p61BRAF^V600ER509H plasmid (pcDNA-3 vector) DNA per well. 24 h after transfection cells were treated with DMSO or increasing concentrations of PHI1 for 1 h and ERK signaling, and BRAF expression was assessed by western blot.

[2] = test system: HEK293H cells expressing p61BRAF^V600E; assay: p-ERK inhibition in transfected HEK293H cells; assay type: cell-based; settings: HEK293-H, 1 μM lapatinib pre-treatment 1 h, PHI1 1 h, read-out: IC50 of pERK inhibition
Protocol: as §1

[3] = target: BRAF^V600E monomers in A375 cells (Homo sapiens, UniProt P15056, V600E); assay: Cellular Thermal Shift Assay (CETSA); assay type: cell-based; settings: 20 μΜ compound, versus DMSO
Protocol: The samples were incubated for 1 h at room temperature, rotating. After compound incubation, samples (50 μL each) were transferred in PCR tubes and incubated for 3 min in a temperature gradient produced with a C1000 thermal cycler (Bio-Rad). Cells were immediately lysed by repeating freeze-thaw cycles (3× times) in liquid nitrogen. […] Equal volumes of supernatants were run on 15-well 4–12% NuPAGE SDS-PAGE gels (Invitrogen), and analyzed by western blot. GAPDH, which is temperature insensitive under these conditions, served as loading control. Results were quantitated by densitometric analysis as described above.

[4] = target: T4, ABL1(E255K)-phosphorylated (Homo sapiens, UniProt P00519, E255K); assay: KINOMEscan scanEDGE binding; settings: KinomeEDGE scan, compound at 1 μΜ
T4 construct: purchased Eurofins/DiscoverX KINOMEscan (scanEDGE panel)

[5] = target: T5, ABL1(T315I)-phosphorylated (Homo sapiens, UniProt P00519, T315I); assay: KINOMEscan scanEDGE binding; settings: KinomeEDGE scan, compound at 1 μΜ
T5 construct: purchased Eurofins/DiscoverX KINOMEscan (scanEDGE panel)

EPHA = assay: KINOMEscan scanEDGE binding; design: species or system human; settings: KinomeEDGE scan, compound at 1 μΜ
ROCK2 = target: T6, ROCK2 (Homo sapiens, UniProt O75116); assay: KINOMEscan scanEDGE binding; settings: KinomeEDGE scan, compound at 1 μΜ
T6 construct: purchased Eurofins/DiscoverX KINOMEscan (scanEDGE panel)

BRAF^V600E [6] = target: T7, BRAF^V600E (Homo sapiens, UniProt P15056, V600E); assay: SelectScreen Z'-LYTE kinase activity assay; assay type: biochemical; design: purchased Invitrogen (SelectScreen service); settings: 100 μM ATP
Protocol: as §2

FGFR1 [7] = target: T8, FGFR1 (Homo sapiens, UniProt P11362); assay: SelectScreen kinase activity assay; assay type: biochemical; design: purchased Invitrogen (SelectScreen service)
Protocol: as §2

[8] = test system: melanoma cells dependent on BRAF^V600E, p61BRAF^V600E, and RAS^MUT/BRAF^WT; assay: 3D culture colony formation; assay type: cell-based; settings: 0.1-10 μM, 5th day of culture, compared to Vemurafenib
Protocol: 3D laminin-rich extracellular matrix cultures were prepared by trypsinization of melanoma cells from tissue culture plastic, seeding of single cells on top of a thin layer of Growth Factor-Reduced Matrigel (BD Biosciences, Franklin Lakes, NJ), and the addition of a medium containing 5% Matrigel. The cells were seeded at the density of 40,000 cells per cm^2. All 3D cell cultures were performed in DMEM supplemented with 5 μg/mL bovine insulin with Zinc (Gibco), 15 μg/mL bovine pituitary extract (Gibco), 0.5 ng/mL epidermal growth factor (Sigma-Aldrich, St. Louis, MO) and 2% fetal bovine serum. 3D cultures were maintained with media and/or drug-treatment changes every second day, and photographs were taken at the end of the 5th day. The size of single cell colonies was estimated with ImageJ (Version 1.51).

AXL = target: T9, AXL (Homo sapiens, UniProt P30530); assay: KINOMEscan scanEDGE binding; settings: KinomeEDGE scan, compound at 1 μΜ
T9 construct: purchased Eurofins/DiscoverX KINOMEscan (scanEDGE panel)

BTK = target: T10, BTK (Homo sapiens, UniProt Q06187); assay: KINOMEscan scanEDGE binding; settings: KinomeEDGE scan, compound at 1 μΜ
T10 construct: purchased Eurofins/DiscoverX KINOMEscan (scanEDGE panel)

CDK7 = target: T11, CDK7 (Homo sapiens, UniProt P50613); assay: KINOMEscan scanEDGE binding; settings: KinomeEDGE scan, compound at 1 μΜ
T11 construct: purchased Eurofins/DiscoverX KINOMEscan (scanEDGE panel)

CDK9 = target: T12, CDK9 (Homo sapiens, UniProt P50750); assay: KINOMEscan scanEDGE binding; settings: KinomeEDGE scan, compound at 1 μΜ
T12 construct: purchased Eurofins/DiscoverX KINOMEscan (scanEDGE panel)

EPHA2 = target: T13, EPHA2 (Homo sapiens, UniProt P29317); assay: KINOMEscan scanEDGE binding; settings: KinomeEDGE scan, compound at 1 μΜ
T13 construct: purchased Eurofins/DiscoverX KINOMEscan (scanEDGE panel)

IKK-beta = target: T14, IKK-beta (Homo sapiens, UniProt O14920); assay: KINOMEscan scanEDGE binding; settings: KinomeEDGE scan, compound at 1 μΜ
T14 construct: purchased Eurofins/DiscoverX KINOMEscan (scanEDGE panel)

MKNK2 = target: T15, MKNK2 (Homo sapiens, UniProt Q9HBH9); assay: KINOMEscan scanEDGE binding; settings: KinomeEDGE scan, compound at 1 μΜ
T15 construct: purchased Eurofins/DiscoverX KINOMEscan (scanEDGE panel)

[9] = target: T16, TYK2(JH1domain-catalytic) (Homo sapiens, UniProt P29597); assay: KINOMEscan scanEDGE binding; settings: KinomeEDGE scan, compound at 1 μΜ
T16 construct: TYK2(JH1domain-catalytic); purchased Eurofins/DiscoverX KINOMEscan (scanEDGE panel)

[10] = standard of care dose for CML; cited from earlier work
BRAF^V600E [11] = target: T7, BRAF^V600E; assay: BRAF kinase activity assay (western blot); assay type: biochemical; design: purchased Invitrogen (SelectScreen service)
Protocol: Kinase activity assays were performed using BRAF Kinase Assay Kit (#17-359), CRAF Kinase Assay Kit (#17-360) and MAP Kinase/Erk Assay Kit (#17-191), following protocols by the provider (Millipore) with some modifications. In brief, BRAF and CRAF, and MEK1 recombinant proteins were incubated for 15 min with inhibitors, then corresponding substrates were added and incubated for 30 min at 30 °C and assayed via western blot.

FGFR1 [12] = target: T8, FGFR1; assay: KINOMEscan scanEDGE binding; design: purchased Eurofins/DiscoverX KINOMEscan (scanEDGE panel); settings: KinomeEDGE scan, compound at 1 μΜ

T8 sequence (P11362 22-822): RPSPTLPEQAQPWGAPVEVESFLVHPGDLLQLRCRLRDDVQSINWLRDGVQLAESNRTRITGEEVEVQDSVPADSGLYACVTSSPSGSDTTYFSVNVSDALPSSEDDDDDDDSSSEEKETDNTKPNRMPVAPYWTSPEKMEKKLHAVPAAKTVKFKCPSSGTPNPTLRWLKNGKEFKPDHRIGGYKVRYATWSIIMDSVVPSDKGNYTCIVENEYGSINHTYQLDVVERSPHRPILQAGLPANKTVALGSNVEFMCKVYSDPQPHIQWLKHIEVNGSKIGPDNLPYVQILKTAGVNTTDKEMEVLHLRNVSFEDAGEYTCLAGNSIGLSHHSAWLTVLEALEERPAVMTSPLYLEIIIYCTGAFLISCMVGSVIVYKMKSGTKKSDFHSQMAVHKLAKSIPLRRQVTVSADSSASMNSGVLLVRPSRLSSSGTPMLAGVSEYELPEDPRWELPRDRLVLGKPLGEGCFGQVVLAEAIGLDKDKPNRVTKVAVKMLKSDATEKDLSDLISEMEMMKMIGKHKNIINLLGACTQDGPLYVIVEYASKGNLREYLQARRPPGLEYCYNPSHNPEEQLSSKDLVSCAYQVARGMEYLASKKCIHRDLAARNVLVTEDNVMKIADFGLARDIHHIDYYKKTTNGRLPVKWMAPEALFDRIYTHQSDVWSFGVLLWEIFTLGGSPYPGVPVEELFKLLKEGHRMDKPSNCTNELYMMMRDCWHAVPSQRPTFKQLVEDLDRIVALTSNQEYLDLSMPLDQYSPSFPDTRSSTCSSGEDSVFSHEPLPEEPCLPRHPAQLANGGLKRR
T7 sequence (P15056 whole entry V600E): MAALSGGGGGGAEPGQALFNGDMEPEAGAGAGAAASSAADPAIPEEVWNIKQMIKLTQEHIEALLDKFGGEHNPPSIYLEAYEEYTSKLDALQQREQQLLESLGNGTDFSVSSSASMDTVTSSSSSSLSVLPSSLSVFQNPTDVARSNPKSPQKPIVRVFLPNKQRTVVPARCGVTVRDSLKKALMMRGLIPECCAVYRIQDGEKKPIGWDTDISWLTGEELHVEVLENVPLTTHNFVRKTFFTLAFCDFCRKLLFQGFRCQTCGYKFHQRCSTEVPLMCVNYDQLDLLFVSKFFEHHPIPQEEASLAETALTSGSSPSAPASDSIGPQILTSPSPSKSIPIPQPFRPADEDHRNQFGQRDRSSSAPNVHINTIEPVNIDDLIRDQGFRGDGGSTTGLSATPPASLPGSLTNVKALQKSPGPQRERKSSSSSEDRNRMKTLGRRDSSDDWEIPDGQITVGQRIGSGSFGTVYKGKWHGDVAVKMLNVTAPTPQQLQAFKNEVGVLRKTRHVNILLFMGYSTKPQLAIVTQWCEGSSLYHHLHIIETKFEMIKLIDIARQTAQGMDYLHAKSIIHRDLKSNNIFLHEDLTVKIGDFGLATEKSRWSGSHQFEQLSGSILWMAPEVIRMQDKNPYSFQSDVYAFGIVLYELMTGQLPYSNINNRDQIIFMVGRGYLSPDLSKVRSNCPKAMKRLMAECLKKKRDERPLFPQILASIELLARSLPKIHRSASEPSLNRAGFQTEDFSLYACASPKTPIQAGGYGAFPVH
T9 sequence (P30530 26-894): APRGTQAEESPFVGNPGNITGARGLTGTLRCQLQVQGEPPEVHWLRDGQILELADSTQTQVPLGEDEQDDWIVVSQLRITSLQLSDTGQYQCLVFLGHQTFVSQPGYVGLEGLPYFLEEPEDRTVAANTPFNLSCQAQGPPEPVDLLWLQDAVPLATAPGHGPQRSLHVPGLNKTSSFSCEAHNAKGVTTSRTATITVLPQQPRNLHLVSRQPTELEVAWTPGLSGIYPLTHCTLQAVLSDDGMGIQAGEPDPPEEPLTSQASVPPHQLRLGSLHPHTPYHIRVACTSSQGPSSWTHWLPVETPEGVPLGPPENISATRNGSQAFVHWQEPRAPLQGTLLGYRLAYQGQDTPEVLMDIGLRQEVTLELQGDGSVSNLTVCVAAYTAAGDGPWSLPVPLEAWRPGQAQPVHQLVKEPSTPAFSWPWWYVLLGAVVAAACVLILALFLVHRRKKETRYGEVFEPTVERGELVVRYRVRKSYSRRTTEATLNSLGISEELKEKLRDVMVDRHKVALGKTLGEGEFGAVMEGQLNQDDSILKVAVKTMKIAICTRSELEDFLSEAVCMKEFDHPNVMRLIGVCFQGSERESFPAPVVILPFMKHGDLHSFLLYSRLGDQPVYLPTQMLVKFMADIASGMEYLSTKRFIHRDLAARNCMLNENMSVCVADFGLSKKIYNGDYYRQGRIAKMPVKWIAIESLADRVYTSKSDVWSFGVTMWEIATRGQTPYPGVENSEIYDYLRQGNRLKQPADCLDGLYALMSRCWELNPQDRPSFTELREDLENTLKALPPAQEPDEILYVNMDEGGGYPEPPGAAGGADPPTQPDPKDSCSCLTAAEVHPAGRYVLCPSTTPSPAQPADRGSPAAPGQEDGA
T16 sequence (P29597 889-1187 limits assumed): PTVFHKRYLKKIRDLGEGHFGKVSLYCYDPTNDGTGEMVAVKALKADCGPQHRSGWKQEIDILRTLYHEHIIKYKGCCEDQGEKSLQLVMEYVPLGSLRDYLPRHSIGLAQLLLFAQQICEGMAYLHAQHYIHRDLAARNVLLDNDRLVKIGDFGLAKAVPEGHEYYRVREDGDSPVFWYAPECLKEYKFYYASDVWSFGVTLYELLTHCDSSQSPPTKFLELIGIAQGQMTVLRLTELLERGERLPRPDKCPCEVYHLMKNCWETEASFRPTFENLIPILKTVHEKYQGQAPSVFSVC
T12 sequence (P50750 whole entry): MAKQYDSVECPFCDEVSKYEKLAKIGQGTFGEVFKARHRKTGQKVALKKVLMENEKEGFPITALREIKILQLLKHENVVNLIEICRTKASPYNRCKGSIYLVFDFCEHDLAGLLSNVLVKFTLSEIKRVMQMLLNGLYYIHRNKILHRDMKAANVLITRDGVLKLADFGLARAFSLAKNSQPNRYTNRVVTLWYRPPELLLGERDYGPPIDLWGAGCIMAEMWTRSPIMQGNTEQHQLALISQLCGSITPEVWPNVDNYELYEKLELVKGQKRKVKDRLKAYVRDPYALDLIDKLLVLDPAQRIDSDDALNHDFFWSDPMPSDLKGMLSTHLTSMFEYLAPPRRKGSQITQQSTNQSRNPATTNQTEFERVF
T15 sequence (Q9HBH9 whole entry): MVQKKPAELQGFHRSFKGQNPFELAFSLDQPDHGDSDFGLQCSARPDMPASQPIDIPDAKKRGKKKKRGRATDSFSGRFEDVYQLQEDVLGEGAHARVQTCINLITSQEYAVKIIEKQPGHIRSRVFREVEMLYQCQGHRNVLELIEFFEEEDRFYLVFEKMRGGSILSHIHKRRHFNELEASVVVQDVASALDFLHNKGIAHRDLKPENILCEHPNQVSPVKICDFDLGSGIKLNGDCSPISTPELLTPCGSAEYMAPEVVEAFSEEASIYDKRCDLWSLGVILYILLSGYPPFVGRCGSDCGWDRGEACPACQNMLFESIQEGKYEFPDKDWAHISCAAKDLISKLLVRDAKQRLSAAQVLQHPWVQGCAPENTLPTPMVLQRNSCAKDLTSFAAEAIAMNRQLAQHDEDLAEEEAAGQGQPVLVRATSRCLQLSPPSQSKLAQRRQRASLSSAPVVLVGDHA
T13 sequence (P29317 24-976): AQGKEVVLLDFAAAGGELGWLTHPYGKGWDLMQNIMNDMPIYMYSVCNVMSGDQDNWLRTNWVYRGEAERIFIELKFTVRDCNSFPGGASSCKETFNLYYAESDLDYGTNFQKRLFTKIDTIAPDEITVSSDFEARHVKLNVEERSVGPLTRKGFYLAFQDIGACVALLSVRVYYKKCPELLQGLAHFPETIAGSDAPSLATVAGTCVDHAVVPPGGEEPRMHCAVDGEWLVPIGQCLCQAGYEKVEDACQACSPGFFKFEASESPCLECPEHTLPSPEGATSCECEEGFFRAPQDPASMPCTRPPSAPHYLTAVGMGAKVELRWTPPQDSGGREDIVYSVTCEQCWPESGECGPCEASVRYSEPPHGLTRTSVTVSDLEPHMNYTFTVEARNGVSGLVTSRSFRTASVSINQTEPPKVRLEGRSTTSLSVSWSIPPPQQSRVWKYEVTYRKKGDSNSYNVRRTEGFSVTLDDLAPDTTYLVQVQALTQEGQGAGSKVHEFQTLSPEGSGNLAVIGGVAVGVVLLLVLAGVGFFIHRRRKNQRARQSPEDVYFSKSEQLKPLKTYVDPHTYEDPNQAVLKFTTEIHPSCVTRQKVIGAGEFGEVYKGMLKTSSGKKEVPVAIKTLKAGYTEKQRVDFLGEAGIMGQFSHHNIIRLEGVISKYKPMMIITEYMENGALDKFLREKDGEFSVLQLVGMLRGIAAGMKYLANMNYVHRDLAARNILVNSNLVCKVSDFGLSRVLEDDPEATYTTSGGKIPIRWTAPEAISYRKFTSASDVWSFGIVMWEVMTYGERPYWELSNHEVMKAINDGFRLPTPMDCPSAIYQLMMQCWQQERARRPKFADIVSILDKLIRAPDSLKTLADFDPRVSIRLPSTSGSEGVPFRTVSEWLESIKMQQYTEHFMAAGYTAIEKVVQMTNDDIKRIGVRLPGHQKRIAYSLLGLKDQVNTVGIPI
Sequence of BRAF^V600E monomers in A375 cells (P15056 whole entry V600E): as the sequence (P15056 whole entry V600E) above
T1 sequence (P15056 whole entry): as the sequence (P15056 whole entry V600E) above, with E600V counted along it
T11 sequence (P50613 whole entry): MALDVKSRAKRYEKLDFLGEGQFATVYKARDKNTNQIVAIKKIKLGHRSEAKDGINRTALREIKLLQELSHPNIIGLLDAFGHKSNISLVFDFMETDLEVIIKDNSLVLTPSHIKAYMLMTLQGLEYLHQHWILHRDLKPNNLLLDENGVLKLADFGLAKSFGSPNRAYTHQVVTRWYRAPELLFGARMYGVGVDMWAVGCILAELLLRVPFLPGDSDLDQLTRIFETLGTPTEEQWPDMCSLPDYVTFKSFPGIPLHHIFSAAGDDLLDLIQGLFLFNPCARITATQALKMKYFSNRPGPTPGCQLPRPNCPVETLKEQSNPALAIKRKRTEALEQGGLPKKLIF

IC50 (BRAF^WT): 323 ± 35 nM | IC50 (ABL1): 8.4 ± 0.3 nM | IC50 (PDFGRα): 8.3 ± 1.5 nM | ΔTm (CETSA) [3]: +3.4 °C | % Ctrl ABL1(E255K)-phosphorylated [4]: 0.25 % Ctrl | % Ctrl ABL1(T315I)-phosphorylated [5]: 3.5 % Ctrl | % Ctrl EPHA (EPHA): 14 % Ctrl | % Ctrl ROCK2 (ROCK2): 35 % Ctrl | IC50 (BRAF^V600E [6]): 10 nM | IC50 (FGFR1 [7]; 100 μM ATP): 624 ± 25 nM | reduction of inhibitory activity on FGFR compared to Ponatinib (FGFR1 [7]; PHI1 versus Ponatinib): 43 fold
SMILES: Cc1ccc(C(=O)Nc2ccc(CNCCN3CCOCC3)c(C(F)(F)F)c2)cc1C#Cc1cnc2cccnn12 [PHI1]
IC50 [1]: 6800 nM | IC50 [2]: 1890 nM

SMILES: Cc1ccc(C(=O)Nc2ccc(CN3CCN(C)CC3)c(C(F)(F)F)c2)cc1C#Cc1cnc2cccnn12 [Ponatinib, 3-[2-(imidazo[1,2-b]pyridazin-3-yl)ethynyl]-4-methyl-N-{4-[(4-methylpiperazin-1-yl)methyl]-3-(trifluoromethyl)phenyl}benzamide]
inhibition of colony formation in 3D culture (in words) [8]: increased efficacy to inhibit colony formation as compared to Vemurafenib | % Ctrl AXL (AXL): 14 % Ctrl | % Ctrl BTK (BTK): 22 % Ctrl | % Ctrl CDK7 (CDK7): 6.2 % Ctrl | % Ctrl CDK9 (CDK9): 28 % Ctrl | % Ctrl EPHA2 (EPHA2): 0 % Ctrl | % Ctrl IKK-beta (IKK-beta): 1.4 % Ctrl | % Ctrl MKNK2 (MKNK2): 0.6 % Ctrl | % Ctrl TYK2(JH1domain-catalytic) [9]: 8.6 % Ctrl | elimination half-life [10]: > 24 h | maximum plasma levels [10]: ~ 100 nM | inhibition of MEK phosphorylation by BRAF^V600E (in words) (BRAF^V600E [11]): potent inhibitor | % Ctrl FGFR1 (FGFR1 [12]): 0.15 % Ctrl
